Results: article PMC548150, “Reversal of a full-length mutant huntingtin neuronal cell phenotype by chemical inhibitors of polyglutamine-mediated aggregation” (BMC Neuroscience, 2005)
“And” between values parts separate entries of the source, which are not always exact repeats. Equal entries are not always repeated. “Also recorded” adds a separate entry of the source. Where two headings read alike, the source gives them in different places.

Assays:
[1] = target: T1, Q58-htn 1–171 amino terminal fragment (GST-Q58-Htn cleaved by thrombin) (Homo sapiens, UniProt P42858, INS38QQQQQQQQQQQQQQQQQQQQQQQQQQQQQQQQQQQQQ); test: in vitro aggregation of amino-terminal mutant huntingtin fragment (filter retardation dot blot); format: biochemical
T1 construct: the amino terminal fragment 1–171 of mutant huntingtin; GST (N, cleaved yes); made in house; host or cells: E. coli BL21 (pGEX-2TK vector)
T1 sequence (P42858 with tags, fused parts or gaps with the stated changes limits assumed): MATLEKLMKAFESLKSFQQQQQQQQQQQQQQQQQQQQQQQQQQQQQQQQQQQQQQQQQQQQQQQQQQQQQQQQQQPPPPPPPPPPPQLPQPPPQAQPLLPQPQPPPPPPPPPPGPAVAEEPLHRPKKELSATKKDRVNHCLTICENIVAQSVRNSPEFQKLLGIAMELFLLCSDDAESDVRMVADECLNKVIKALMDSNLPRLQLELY
Procedure: In our primary screen (Figure 1A), GST-Q58-Htn (20 μg/ml) was mixed with thrombin (0.5 unit/μg GST-Q58-Htn) and immediately dispensed into a 96-well PCR plate containing compounds diluted to a final concentration of 100 μM. Incubation was continued for 24 hours at room temperature to allow aggregate formation. The aggregation was stopped by 2% SDS/10 mM 2-mercaptoethanol followed by boiling for 5 minutes. The mixture was filtered through a cellulose acetate membrane by using a 96-well ELIFA dot blot apparatus. The aggregates retained on the membrane were detected and quantified by immunoblotting and subsequent image analysis. Congo Red, a known huntingtin aggregation inhibitor, was used as the positive control.
A recombinant pGEX-2TK expression vector with cDNA fragment encoding amino terminal 171 amino acids of human huntingtin with a polyglutamine tract of 58 was used to prepare the GST-Q58-htn fusion protein. The GST-Q58-htn was overexpressed in BL21 cells and purified by affinity chromatography over glutathione-sepharose 4B beads (Amersham Pharmacia Biotech). The purified proteins were stored at concentration of 2.0 mg/ml at -80°C.
For primary screening of the chemical library, 1 μl of 4.0 mM small compound stock, diluted from the original plates, was placed in wells of 96-well plates. The fusion protein, GST-Q58-Htn was mixed with thrombin (0.5 unit/1 μg protein) at a concentration of 20 μg/ml in a buffer of 50 mM Tris-HCl, pH 8.0, 100 mM NaCl, 2.5 mM CaCl2, 1.0 mM EDTA. The mixture was immediately distributed into the 96-well plates containing diluted compounds at 40 μl/well and mixed well. The final concentration of the small compounds was 100 μM. After 24 hours incubation at room temperature, the reaction was stopped by adding 10 μl of 10% SDS/50 mM 2-mercaptoethanol to each well followed by boiling in a PCR machine for 5 minutes. The mixture from each well was filtered through a cellulose acetate membrane ((0.2 μm, GE Osmonics labstore, Minnetonka MN) by using a 96-well ELIFA (Pierce Biotech). The aggregates retained on the membrane were detected by a specific anti-huntingtin antibody, HP1 (diluted 1:1000), followed by incubation with peroxidase conjugated anti-rabbit antibody (diluted 1:10,000, Sigma). Signals from SDS insoluble aggregates were scanned and quantified by using ImageMaster Totalab image analysis software (Amersham Pharmacia Biotech). In the secondary screening, all steps were the same except the final concentration of compound in each well was reduced to 10 μM and the GST-Q58-Htn/thrombin mixture was preincubated for 45-minutes at room temperature and clarified by centrifugation at 28,000 × g for 30 minutes before being added to the test wells. For IC50 determinations, the in vitro aggregation assay and signal quantification were performed as in the second screening but varying the final concentration of input drug. The data for each inhibitor were obtained from at least two independent experiments in which every sample was analyzed in triplicate with Prism 3.0 software (Graphpad Software, Inc., San Diego, CA).

[2] = test system: ST111/111 striatal cells (Hdh^Q111/Q111, full-length mutant huntingtin); test: striatal cell line assay: huntingtin localization phenotype (AP229 immunostaining, confocal); format: cell-based, mouse; conditions: for Percentage of ST111/111 cells showing cytoplasmic/nuclear huntingtin localization comparable to wild-type ST7/7 cells: 30 min at 33°C, mean ± SD of 5–10 fields; for reversal of the mutant huntingtin localization phenotype (in words): 0.5–50 μM tested
Text: To test the hypothesis that compounds, which inhibit the aggregation-promoting property of amino-terminal mutant huntingtin will also rescue effects of full-length mutant huntingtin, we tested the top six inhibitors in a striatal cell-based assay. Mutant Hdh^Q111/Q111 and wild-type Hdh^Q7/Q7 striatal cell lines, […], which have been prepared by transformation with a tsSV40 vector, can be propagated in culture and used for cytological and biochemical comparisons. These cells express full-length mutant or wild-type huntingtin, respectively, with no evidence of truncated amino-terminal fragments, no formation of polyglutamine aggregates and no cell death-producing toxicity. However, like the striatal neurons of Hdh^Q111/Q111 knock-in mice, the ST111/111 cells show nuclear staining of huntingtin when tested with an amino-terminal huntingtin antibody that is sensitive to the conformation of the full-length protein (Figure 5A). By contrast, ST7/7 cells expressing wild type huntingtin show both nuclear and cytoplasmic immunostaining with the same huntingtin antibody (Figure 5A).
Conditionally immortalized wild-type Hdh^Q7/Q7 striatal neuronal progenitor cells (ST7/7) expressing endogenous normal huntingtin, and homozygous Hdh^Q111/Q111 striatal neuronal progenitor cells (ST111/111), expressing endogenous mutant huntingtin with 111-glutamines, have been described previously. The striatal cell lines were grown at 33°C in Dulbecco's modified Eagle's medium (DMEM) supplemented with 10 % fetal bovine serum (FBS), 1% nonessential aminoacids, 2 mM L-glutamine and 400 μg/ml G418 (Geneticin (GIBCO-BRL, Life Technologies, Gaithersburg, MD).
(§1) In the immunofluorescence and confocal analysis experiment, wild-type ST7/7 and homozygous mutant ST111/111 cells, grown to confluence on glass coverslips, were treated with 6 different drugs at four different concentrations (0.5, 5, 10 or 50 μM) for 30 min at 33°C. After the treatment the drugs were removed and the cells washed twice in PBS. The cells were then fixed by incubation in 4% formaldehyde for 15 min, permeabilized by 0.1% Triton X-100 for 5 min and incubated for 30 min with blocking solution (1% bovine albumin in PBS). Coverslips were then incubated in primary antibody (AP229 1:500 dilution) for 2 h at room temperature and washed three times in PBS before a further 1 h in blocking solution containing the secondary antibody (goat anti-rabbit Cy3, Jackson ImmunoResearch, West Grove, PA. USA). After three washes in PBS coverslips were mounted onto glass slides with Vectashield (Burlingame, CA. USA) and the images were analyzed with a laser confocal microscope (Bio-Rad, Hercules, CA. USA) using 20 × objective. Cell death was quantified by scoring the percentage of cells with apoptotic nuclear morphology, i.e. condensed or fragmented nuclei, under the confocal microscope. In each case five to ten randomly selected fields were counted, comprising at least 200 cells, and each experiment was repeated 3 times.

[3] = test system: HEK 293T cells expressing androgen receptor with 112 glutamines; conditions: cited from earlier work
ST111/111 striatal cells = format: cell-based; conditions: for percentage of dead cells: mouse, 30 min
Procedure: as §1, with “After” for “In the immunofluorescence and confocal analysis experiment, wild-type ST7/7 and homozygous mutant ST111/111 cells, grown to confluence on glass coverslips, were treated with 6 different drugs at four different concentrations (0.5, 5, 10 or 50 μM) for 30 min at 33°C. After”

[4] = test system: hippocampal slice cultures from the R6/2 mouse; parameters: method as in PMID 12891671; conditions: 30 μM; cited from earlier work
[5] = GST-Q58-Htn 20 μg/ml pre-incubated with thrombin, 24 h room temperature, average of at least two independent experiments, read-out: IC50 (half-maximal inhibition) of Q58-Htn aggregation

Question: With `O=C1c2c(O)cccc2Cc2cccc(O)c21` [Anthralin] as the compound, how does the IC50 [1, 5] read?
Answer: < 15 µM and 10.5 µM

Question: What about the “Percentage of ST111/111 cells showing cytoplasmic/nuclear huntingtin localization comparable to wild-type ST7/7 cells” value ([2]; 0.5 μM) of the same compound?
Answer: 4.6 ± 7.6%

Question: What about the “Percentage of ST111/111 cells showing cytoplasmic/nuclear huntingtin localization comparable to wild-type ST7/7 cells” value ([2]; 5 μM) of the same compound?
Answer: 6.6 ± 9.7%

Question: And the “Percentage of ST111/111 cells showing cytoplasmic/nuclear huntingtin localization comparable to wild-type ST7/7 cells” value ([2]; 10 μM)?
Answer: 9.6 ± 12.1%

Question: And the “Percentage of ST111/111 cells showing cytoplasmic/nuclear huntingtin localization comparable to wild-type ST7/7 cells” value ([2]; 50 μM)?
Answer: 11.8 ± 14.4%

Question: What about the “reversal of the mutant huntingtin localization phenotype (in words)” value [2] of the same compound?
Answer: little effect; also recorded: not effective

Question: Which “inhibition of Q58-Htn aggregation” value ([1]; 10 μM, positive control) does the source give for `Nc1c(/N=N/c2ccc(-c3ccc(/N=N/c4cc(S(=O)(=O)O)c5ccccc5c4N)cc3)cc2)cc(S(=O)(=O)O)c2ccccc12` [Congo Red] here?
Answer: completely inhibit

Question: What does the source list for `CC(C)=CCC[C@]1(C)C=Cc2c(O)c3c(c(CC=C(C)C)c2O1)O[C@]12C(=C[C@@H]4C[C@H]1C(C)(C)O[C@@]2(C/C=C(/C)C(=O)O)C4=O)C3=O` [Gambogic acid]?
Answer: IC50 [1, 5]: < 6 µM and < 15 µM and 0.87 µM; residual aggregate formed ([1]; at the maximum concentration of the dose response (0.01 μM to 500 μM)): approximately 20%; Percentage of ST111/111 cells showing cytoplasmic/nuclear huntingtin localization comparable to wild-type ST7/7 cells ([2]; 0.5 μM): 1 ± 2.6%; Percentage of ST111/111 cells showing cytoplasmic/nuclear huntingtin localization comparable to wild-type ST7/7 cells ([2]; 5 μM): 0%; reversal of the mutant huntingtin localization phenotype (in words) [2]: not effective; effect on caspase 3 activation [3]: blocked caspase 3 activation; toxicity in the HEK 293T assay [3]: showed toxicity

Question: Which results are given for `Cc1cc2c(C(C)C)c(O)c(O)c(C=O)c2c(O)c1-c1c(C)cc2c(C(C)C)c(O)c(O)c(C=O)c2c1O` [Gossypol-acetic acid]?
Answer: cell toxicity (in words) (ST111/111 striatal cells; tested up to 50 μM): no toxicity; IC50 [1]: < 6 µM and < 15 µM and 0.65 µM; Percentage of ST111/111 cells showing cytoplasmic/nuclear huntingtin localization comparable to wild-type ST7/7 cells ([2]; 0.5 μM): 0%; Percentage of ST111/111 cells showing cytoplasmic/nuclear huntingtin localization comparable to wild-type ST7/7 cells ([2]; 5 μM): 4.5 ± 4.3%; Percentage of ST111/111 cells showing cytoplasmic/nuclear huntingtin localization comparable to wild-type ST7/7 cells ([2]; 10 μM): 3.5 ± 3.5%; Percentage of ST111/111 cells showing cytoplasmic/nuclear huntingtin localization comparable to wild-type ST7/7 cells ([2]; 50 μM): 15.9 ± 11.1%; Percentage of ST111/111 cells showing cytoplasmic/nuclear huntingtin localization comparable to wild-type ST7/7 cells ([2]; 50 μM, listed as Gossypol acetic acid complex): 15%; reversal of the mutant huntingtin localization phenotype (in words) [2]: not effective; reversal of the mutant huntingtin localization phenotype (in words) ([2]; listed as Gossypol acetic acid complex): less effective

Question: With `O=C1C=CC(=O)c2c(O)cccc21` [Juglone] as the compound, how does the IC50 [1, 5] read?
Answer: < 6 µM and < 15 µM and 2.67 µM

Question: What about the “Percentage of ST111/111 cells showing cytoplasmic/nuclear huntingtin localization comparable to wild-type ST7/7 cells” value ([2]; 0.5 μM) of the same compound?
Answer: 10.4 ± 12.4%

Question: What about the “Percentage of ST111/111 cells showing cytoplasmic/nuclear huntingtin localization comparable to wild-type ST7/7 cells” value ([2]; 5 μM) of the same compound?
Answer: 37.9 ± 19.9%

Question: What about the “Percentage of ST111/111 cells showing cytoplasmic/nuclear huntingtin localization comparable to wild-type ST7/7 cells” value ([2]; 10 μM) of the same compound?
Answer: 68% and 68.8 ± 18.4%

Question: What about the “reversal of the mutant huntingtin localization phenotype (in words)” value [2] of the same compound?
Answer: reversed the mutant phenotype in a dose-dependent manner; also recorded: effective

Question: With `C=C1c2c(Cl)ccc(O)c2C(=O)C2=C(O)[C@]3(O)C(=O)C(C(N)=O)=C(O)[C@@H](N(C)C)[C@@H]3[C@@H](O)[C@H]12` [Meclocycline sulfosalicylate] as the compound, how does the IC50 [1, 5] read?
Answer: 14.8 µM

Question: For `N=C1C=CC(=C(c2ccc(N)cc2)c2ccc(N)cc2)C=C1` [Pararosaniline pamoate], which IC50 [1, 5] is on record?
Answer: 14.9 µM

Question: Which results are given for `C[n+]1cc2c3c(ccc2c2ccc4cc5c(cc4c21)OCO5)OCO3` [Sanguinarine nitrate]?
Answer: percentage of dead cells (ST111/111 striatal cells; 0.5 μM): 4.3%; percentage of dead cells (ST111/111 striatal cells; 5 μM): 5.5%; percentage of dead cells (ST111/111 striatal cells; 10 μM): 22.5%; IC50 [1, 5]: < 6 µM and < 15 µM and 5.7 µM; Percentage of ST111/111 cells showing cytoplasmic/nuclear huntingtin localization comparable to wild-type ST7/7 cells ([2]; 0.5 μM): 0%; Percentage of ST111/111 cells showing cytoplasmic/nuclear huntingtin localization comparable to wild-type ST7/7 cells ([2]; 5 μM): 3.7 ± 5.2%; Percentage of ST111/111 cells showing cytoplasmic/nuclear huntingtin localization comparable to wild-type ST7/7 cells ([2]; 10 μM): 0%; reversal of the mutant huntingtin localization phenotype (in words) [2]: little effect; reversal of the mutant huntingtin localization phenotype (in words) ([2]; listed as sanguinarine): not effective; effect on caspase 3 activation [3]: blocked caspase 3 activation

Question: For `CO[C@H]1C[C@H](O[C@@H]2/C(C)=C/C[C@@H]3C[C@@H](C[C@]4(CC[C@H](C)[C@@H](C5CCCCC5)O4)O3)OC(=O)[C@@H]3C=C(C)/C(=N/O)[C@H]4OC/C(=C\C=C\[C@@H]2C)[C@]43O)O[C@@H](C)[C@@H]1O` [Selamectin], which IC50 [1] is on record?
Answer: 12.4 µM

Question: With `CN(C)c1ccc(O)c2c1C[C@H]1C[C@H]3[C@H](N(C)C)C(O)=C(C(N)=O)C(=O)[C@@]3(O)C(O)=C1C2=O` [minocycline] as the compound, how does the “effect on huntingtin exon 1 aggregation” value [4] read?
Answer: inhibitory effect

Question: What about the IC50 [1, 5] of the same compound?
Answer: 43 µM

Question: Which results are given for Tyrothricin?
Answer: IC50 [1, 5]: 14.7 µM; effect on caspase 3 activation [3]: blocked caspase 3 activation; toxicity in the HEK 293T assay [3]: showed toxicity
